According to article PMC8718758, “Using Unnatural Protein Fusions to Engineer a Coenzyme Self-Sufficiency System for D-Phenyllactic Acid Biosynthesis in Escherichia coli” (Frontiers in Bioengineering and Biotechnology, 2021):

Target: T1, LfD-LDH (Limosilactobacillus fermentum, UniProt A0ABF7R291)
T1 construct: gene LAF_0632; gene cloned BamHI/XhoI in pET28a, expressed in E. coli BL21(DE3) (strain CP101); gene primers only in supplement
Experiment: enzymatic conversion of phenylpyruvate to D-phenyllactic acid
Format: biochemical
Settings: co-substrate phenylpyruvate, pH 7, 35 °C; paper says only D-LDH here, LfD-LDH inferred; enzyme purity not described

T1 sequence (A0ABF7R291 1-332): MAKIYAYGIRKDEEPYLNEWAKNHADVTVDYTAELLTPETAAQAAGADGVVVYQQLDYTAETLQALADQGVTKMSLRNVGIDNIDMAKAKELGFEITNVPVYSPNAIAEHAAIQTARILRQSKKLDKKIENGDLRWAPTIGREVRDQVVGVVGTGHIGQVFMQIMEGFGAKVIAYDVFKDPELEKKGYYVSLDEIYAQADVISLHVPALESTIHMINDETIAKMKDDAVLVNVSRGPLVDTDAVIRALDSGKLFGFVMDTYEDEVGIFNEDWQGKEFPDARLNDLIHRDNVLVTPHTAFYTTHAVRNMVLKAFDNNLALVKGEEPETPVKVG

## NC(=O)C1=CN([C@@H]2O[C@H](COP(=O)(O)OP(=O)(O)OC[C@H]3O[C@@H](n4cnc5c(N)ncnc54)[C@H](O)[C@@H]3O)[C@@H](O)[C@H]2O)C=CC1 [NADH]
  enzymatic conversion of phenylpyruvate to D-phenyllactic acid: NADH-dependent D-LDH must rely on NADH to catalyze the conversion of PPA to D-PLA
